Columns and labels:
Format in all cases: cell-based
[1] = target: T1, human mineralocorticoid receptor (MR) (Homo sapiens, UniProt P08235); assay: Cellular in vitro assay, GAL4-MR chimera luciferase reporter in CHO K1 cells (inhibitory MR activity); details: GAL4-MR ligand-binding domain chimera, agonist aldosterone
T1 construct: expressed in transfected cells; host or cells: CHO K1
T1 sequence (P08235 734-984 limits assumed): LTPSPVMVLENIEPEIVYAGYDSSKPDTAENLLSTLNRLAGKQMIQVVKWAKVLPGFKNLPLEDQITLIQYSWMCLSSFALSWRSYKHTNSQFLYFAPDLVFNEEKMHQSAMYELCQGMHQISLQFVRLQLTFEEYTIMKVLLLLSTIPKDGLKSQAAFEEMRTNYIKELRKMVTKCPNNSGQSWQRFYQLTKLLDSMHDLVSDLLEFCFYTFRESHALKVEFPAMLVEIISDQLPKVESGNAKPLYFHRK
Excerpt: (§1) 1. Cellular In Vitro Assay to Determine the Inhibitory MR Activity and MR Selectivity Compared with Other Steroid Hormone Receptors
(§2) Antagonists of the human mineralocorticoid receptor (MR) are identified, and the efficacy of the compounds described herein is quantified with the aid of a recombinant cell line. The cell is originally derived from a hamster ovary epithelial cell (Chinese Hamster Ovary, CHO K1, ATCC: American Type Culture Collection, VA 20108, USA).
(§3) An established chimera system in which the ligand-binding domains of human steroid hormone receptors are fused to the DNA-binding domain of the yeast transcription factor GAL4 is used in this CHO K1 cell line. The GAL4-steroid hormone receptor chimeras produced in this way are cotransfected and stably expressed with a reporter construct in the CHO cells.
(§4) To generate the GAL4-steroid hormone receptor chimeras, the GAL4 DNA-binding domain (amino acids 1-147) from the vector pFC2-dbd (from Stratagene) is cloned with the PCR-amplified ligand-binding domains of the mineralocorticoid receptor (MR, amino acids 734-985), of the glucocorticoid receptor (GR, amino acids 443-777), of the progesterone receptor (PR, amino acids 680-933) and of the androgen receptor (AR, amino acids 667-919) into the vector pIRES2 (from Clontech). The reporter construct, which contains five copies of the GAL4 binding site upstream of a thymidine kinase promoter, leads to expression of firefly luciferase (Photinus pyralis) after activation and binding of the GAL4-steroid hormone receptor chimeras by the respective specific agonists aldosterone (MR), dexamethasone (GR), progesterone (PR) and dihydrotestosterone (AR).
(§5) The MR, GR, PR and AR cells are plated out in medium (Optimem, 2.5% FCS, 2 mM glutamine, 10 mM HEPES) in 96-well (or 384- or 1536-well) microtiter plates the day before the assay, and are kept in a cell incubator (96% air humidity, 5% v/v CO2, 37° C.). On the day of the assay, the substances to be tested are taken up in the abovementioned medium and added to the cells. About 10 to 30 minutes after addition of the test substances, the respective specific agonists of the steroid hormone receptors are added. After a further incubation time of 5 to 6 hours, the luciferase activity is measured with the aid of a video camera. The relative light units measured as a function of the substance concentration give a sigmoidal stimulation curve. The IC50 values are calculated with the aid of the computer program GraphPad PRISM (Version 3.02).

[2] = target: T2, glucocorticoid receptor (GR) (Homo sapiens, UniProt P04150); assay: Cellular in vitro assay, GAL4-GR chimera luciferase reporter in CHO K1 cells (selectivity); details: GAL4-GR ligand-binding domain chimera, agonist dexamethasone
T2 construct: of the glucocorticoid receptor (GR, amino acids 443-777); expressed in transfected cells; host or cells: CHO K1
T2 sequence (P04150 443-777): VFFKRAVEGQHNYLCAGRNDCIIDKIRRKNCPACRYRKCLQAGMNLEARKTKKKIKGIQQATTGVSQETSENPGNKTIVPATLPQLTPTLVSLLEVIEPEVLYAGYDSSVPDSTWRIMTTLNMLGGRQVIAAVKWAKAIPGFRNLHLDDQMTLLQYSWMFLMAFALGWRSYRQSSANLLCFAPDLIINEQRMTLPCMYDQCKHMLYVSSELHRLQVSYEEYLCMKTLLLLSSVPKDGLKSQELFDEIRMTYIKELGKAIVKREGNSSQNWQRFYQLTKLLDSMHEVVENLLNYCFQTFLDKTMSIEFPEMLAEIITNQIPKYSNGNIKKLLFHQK
Excerpt: as §1, §2, §3, §4, §5

androgen receptor (AR) = target: T3, androgen receptor (AR) (Homo sapiens, UniProt P10275); assay: Cellular in vitro assay, GAL4-AR chimera luciferase reporter in CHO K1 cells (selectivity); details: GAL4-AR ligand-binding domain chimera, agonist dihydrotestosterone
T3 construct: of the androgen receptor (AR, amino acids 667-919); expressed in transfected cells; host or cells: CHO K1
T3 sequence (P10275 667-919): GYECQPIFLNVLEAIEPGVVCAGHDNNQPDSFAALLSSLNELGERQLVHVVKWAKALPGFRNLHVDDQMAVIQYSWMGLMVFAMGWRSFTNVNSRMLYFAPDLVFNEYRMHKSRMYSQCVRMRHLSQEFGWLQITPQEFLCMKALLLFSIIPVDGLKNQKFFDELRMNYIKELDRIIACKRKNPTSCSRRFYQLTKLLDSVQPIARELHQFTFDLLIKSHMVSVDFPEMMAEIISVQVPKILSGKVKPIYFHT
Excerpt: as §1, §2, §3, §4, §5

[3] = target: T4, progesterone receptor (PR) (Homo sapiens, UniProt P06401); assay: Cellular in vitro assay, GAL4-PR chimera luciferase reporter in CHO K1 cells (selectivity); details: GAL4-PR ligand-binding domain chimera, agonist progesterone
T4 construct: of the progesterone receptor (PR, amino acids 680-933); expressed in transfected cells; host or cells: CHO K1
T4 sequence (P06401 680-933): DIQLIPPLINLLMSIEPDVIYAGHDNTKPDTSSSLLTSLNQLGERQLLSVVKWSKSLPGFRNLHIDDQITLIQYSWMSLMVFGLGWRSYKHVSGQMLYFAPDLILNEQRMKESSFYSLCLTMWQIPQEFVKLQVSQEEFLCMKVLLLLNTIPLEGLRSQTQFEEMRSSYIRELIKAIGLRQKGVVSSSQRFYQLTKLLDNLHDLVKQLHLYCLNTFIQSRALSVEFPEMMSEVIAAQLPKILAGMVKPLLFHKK
Excerpt: as §1, §2, §3, §4, §5

Compound	IC50 [1]	IC50 [2]	IC50 (androgen receptor (AR))	IC50 [3]
CCc1cccc2c(C(CCCO)c3ccc(C(F)(F)F)cc3)c[nH]c12 (single isomer, unassigned) [Example 3-1, 4-(7-Ethyl-1H-indol-3-yl)-4-[4-(trifluoromethyl)phenyl]butan-1-ol]	420 nM	6470 nM	3650 nM	5870 nM
Cc1cccc2c(C(CCCC#N)c3ccc(C(F)(F)F)cc3)c[nH]c12 (single isomer, unassigned) [Example 8-1, 5-(7-Methyl-1H-indol-3-yl)-5-[4-(trifluoromethyl)phenyl]pentanenitrile]	200 nM	5100 nM	1530 nM	2710 nM
CCc1cccc2c(C(CCCC#N)c3ccc(C(F)(F)F)cc3)c[nH]c12 (single isomer, unassigned) [Example 4-1, 5-(7-Ethyl-1H-indol-3-yl)-5-[4-(trifluoromethyl)phenyl]pentanenitrile]	140 nM	2340 nM	2000 nM	1740 nM

Other lines, results leading:

IC50 [1]	IC50 [2]	IC50 (androgen receptor (AR))	IC50 [3]	Compound
90 nM	390 nM	4200 nM	3350 nM	CCc1cccc2c(C(CCC#N)c3ccc4ccccc4c3)c[nH]c12 (stereo not shown) [Example 34]
330 nM	700 nM			CS(=O)(=O)Nc1cccc2c(C(CCO)c3ccc(C(F)(F)F)cc3)c[nH]c12 (stereo not shown) [Example 16, N-(3-{3-Hydroxy-1-[4-(trifluoromethyl)phenyl]propyl}-1H-indol-7-yl)methanesulfonamide]
20 nM	2210 nM	2270 nM	4500 nM	CS(=O)(=O)Nc1cccc2c(C(CCC#N)c3ccc(C(F)(F)F)cc3)c[nH]c12 (single isomer, unassigned) [Example 17-1]

— patent US20110183928A1 (BAYER SCHERING PHARMA AKTIENGESELLSCHAFT, priority 2008, published 2011)
